Measured values: patent US10724099B2, “Multiplex methods to assay mixed cell populations simultaneously” (The Broad Institute, Inc., priority 2012, dated 2020)

Tests used:
308 kinases = experiment: Kinase activity profiling, Millipore KinaseProfiler; assay type: biochemical
HCT-116 cells [1] = experiment: DNA content by propidium iodide flow cytometry; assay type: cell-based; settings: 10 μM, 24 hours or 48 hours
Experimental: In addition, HCT-116 cells were treated with 10 μM of DMSO, or the Aurora Kinase Inhibitors barasertib, GSK1070916, MLN8054, BRD-7880, or tozasertib. 24 hours or 48 hours following treatment, cells were stained with propidium iodide and DNA content per cell was assessed using a Becton Dickinson LSR II flow cytometer.

HCT-116 cells [2] = experiment: Western blot phosphoserine 10-histone H3; assay type: cell-based; settings: 10 μM
Experimental: Finally, HCT-116 cells were treated with 10 μM of DMSO, barasertib, GSK1070916, MLN8054, BRD-7880, or tozasertib. Cells lysates were probed on Western blot using antibodies (diluted 1:1000) to histone H3 (Abcam cat. no. 24834), phosphoserine 10-histone H3 (Cell Signaling Technology cat no. 3377SS), aurora kinase B (Millipore cat. no. 04-1036), or beta-actin (Santa Cruz Biotechnology cat. no. sc-47778) and detected using a LI-COR Odyssey analyzer.

[3] = tested on: 25 barcoded lung adenocarcinoma cell lines; experiment: PRISM, mixture of 25 barcoded lung adenocarcinoma cell lines; assay type: cell-based, human; settings: for viability relative to DMSO-treated control (relative inhibition profile): cell lines in mixture, 0-10 μM (puromycin 0-10 μg/ml), day 5
Experimental: PRISM detection was performed as follows. Genomic DNA from cell lysates was amplified by PCR using primers Biotin pLENTR4 (5′-Biotin-[…]-3′; SEQ ID NO:3) and pLENTF1 (5′-[…]-[…]-3′; SEQ ID NO:4). PCR product was hybridized to Luminex beads with covalently attached antisense barcodes, and streptavidin-phycoerythrin addition, washing, and detection on Luminex FlexMap machines was performed as previously described (Peck et al., Genome Biol 7, R61 (2006)). PCR without genomic DNA was hybridized with beads to serve as background control; signal for each bead was subtracted from each sample measurement. DMSO-treated cell mixtures were used as reference control for scaling of each cell line signal at the conclusion of each experiment (viability=100 for each cell line).
These lines were barcoded as described above, and equal numbers of cells of each cell lines were mixed together. Cell mixtures were plated in 384-well plates on day −1. On day 0, mixtures were challenged with compounds or vehicle, and on day 5 genomic DNA was harvested and barcodes quantitated. Barcode signal background was determined using beads hybridizing to PCR reactions lacking genomic DNA templates and was subtracted from all measurements. To account for different doubling times of cell lines and different baseline signals for each cell line, the barcode signal for each cell line was scaled to the signal of the vehicle-treated control at the end of the experiment (PRISM schema shown in FIG. 1A), so that the relative growth inhibition of each cell line was assessed.

[4] = tested on: 100 human cancer cell lines; experiment: OPTICAL (Opera enumeration of nuclei), 100 cell lines grown individually; assay type: cell-based; settings: for reduction in cell viability in BRAF V600E mutant lines compared to BRAF wild-type lines: OPTICAL (Nuclei), individual lines, day 3
Source text: (§1) To quantitatively compare the 100-cell line PRISM performance to traditional methods, PRISM was compared to the activity of 23 compounds across the same 100 cell lines grown individually, as recently reported (using either ATP content measurements using the CellTiterGlo (CTG), or direct enumeration of cell nuclei using an optical fluorescent imaging method (PerkinElmer Opera system (hereafter, OPTICAL)) and thus served as a gold standard against which PRISM could be compared (Barretina et al., Nature 483, 603 (Mar. 29, 2012)). The same parental cell lines were used in all three methods; in the PRISM method, a barcoded “daughter” line was generated from the common parental cell line. Compounds used in assays were replica-plated from the same source. The cell lines grown individually were assayed at day 3 following compound treatment, whereas the 100-cell line PRISM mixture was analyzed at day 5.
(§2) To compare the three methods for measuring cell viability, the AUC (Area Under the Curve, measured from the viability vs. logarithm of drug concentration curve) was calculated for each combination of compound and cell line and for each viability measurement method. The CTG and OPTICAL methods were generally correlated with Pearson R=0.801. CTG and PRISM correlated with R=0.663, and OPTICAL and PRISM correlated with R=0.720. […] To investigate whether particular cell lines or specific compounds were disproportionately responsible for divergent predictive results between PRISM and the other methods, we examined the ratio between […] or […]. […] In these rare cases, either the different assay conditions (5-day assay with PRISM, 3-day assay with OPTICAL and CTG) or the assay of cells in mixture might explain the discrepancy. Overall, however, PRISM appears to perform comparably to these other methods in global determinations of sensitivity to compounds in these 100 cell lines.

[5] = tested on: 100 human cancer cell lines; experiment: CTG (CellTiterGlo ATP), 100 cell lines grown individually; assay type: cell-based; settings: for reduction in cell viability in BRAF V600E mutant lines compared to BRAF wild-type lines: CTG (ATP), individual lines, day 3
Source text: as §1, §2

[6] = tested on: 24 barcoded human lung adenocarcinoma cell lines; experiment: In vivo PRISM, xenograft of 24 barcoded lung adenocarcinoma cell lines in NSG mice; settings: 50 mg/kg once daily by gavage for 16 days, vs vehicle
Source text: The tumors were than resected, and the abundance of each cell line measured by PRISM.

[7] = tested on: 100 human cancer cell lines; experiment: PRISM, 100 barcoded cancer cell lines in mixture; assay type: cell-based; settings: for reduction in cell viability in BRAF V600E mutant lines compared to BRAF wild-type lines: mixture, day 5
Experimental: PRISM detection was performed as follows. Genomic DNA from cell lysates was amplified by PCR using primers Biotin pLENTR4 (5′-Biotin-[sequence]-3′; SEQ ID NO:3) and pLENTF1 (5′-[sequence]-[sequence]-3′; SEQ ID NO:4). […] PCR without genomic DNA was hybridized with beads to serve as background control; signal for each bead was subtracted from each sample measurement. DMSO-treated cell mixtures were used as reference control for scaling of each cell line signal at the conclusion of each experiment (viability=100 for each cell line).
To investigate cancer vulnerabilities that are common in multiple cancer types and to examine the extent to which assaying cells in mixture may be complicated by cell-cell interactions, a panel of 100 barcoded cell lines was created comprising 18 different cancer types, and these were challenged in mixture with each of 43 anticancer compounds (including both targeted and general cytotoxic agents) in 8-point dose response. Each compound was represented by 3,200 functional measurements (100 cell lines×8 doses×4 replicates). The assays were performed as follows. Frozen mixtures of barcoded cell lines were thawed (day −2) and replated (day −1) into 384-well microtiter plates. On day 0, compounds suspended in DMSO were pinned into cultures to achieve final concentrations of 0.0012, 0.0049, 0.019, 0.078, 0.3125, 1.25, 5, or 20 μg ml-1. On day 5, cells were washed with phosphate-buffered saline and lysed for 60 minutes at 60° C. in 20 mM Tris-HCl (pH 8.4), 50 mM KCl, 0.45% IGEPAL CA-630 (Sigma cat. 18896), 0.45% Tween-20 (Sigma cat. P9416), and 10% proteinase K (Qiagen cat. 19133). Proteinase K was inactivated by a 15-minute incubation at 95° C.

In the case of `Cc1cc(Nc2cc(N3CCN(C)CC3)nc(Sc3ccc(NC(=O)C4CC4)cc3)n2)[nH]n1` [tozasertib], the “significant inhibition (defined as activity<25% control) across 308 kinases” value (308 kinases) is reported as “inhibited aurora kinases A, B, and C, in addition to several other kinases”, the “DNA content per cell” value (HCT-116 cells [1]) is reported as “increased DNA content” and the “phosphorylation of serine 10 on histone H3” value (“phosphorylation” below) (HCT-116 cells [2]) is reported as “decrease phosphorylation of serine 10 on histone H3”.

`COc1ccc(C[C@H](N)C(=O)N[C@H]2[C@@H](O)[C@H](n3cnc4c(N(C)C)ncnc43)O[C@@H]2CO)cc1` [puromycin] was tested, and the “viability relative to DMSO-treated control (relative inhibition profile)” value [3] was “uniform cell death across the cell line mixture”.

For `C#Cc1cccc(Nc2ncnc3cc(OCCOC)c(OCCOC)cc23)c1` [erlotinib], the “sensitivity of EGFR-mutant lines compared to EGFR wild-type lines” value ([4]; OPTICAL, did not reach statistical significance) was “trend towards increased sensitivity”, the “sensitivity of EGFR-mutant lines compared to EGFR wild-type lines” value ([5]; CTG, did not reach statistical significance) was “trend towards increased sensitivity” and the “representation of the detectable 19 wt-EGFR lines” value [6] was “mostly unchanged or increased in representation”. The “sensitivity of EGFR-mutant lines compared to EGFR wild-type lines” value ([7]; did not reach statistical significance) was “trend towards increased sensitivity”, the “sensitivity of HCC2935 among the 4 EGFR-mutant lines in vitro” value ([3]; HCC2935, FIG. 1b) was “least sensitive” and the “viability relative to DMSO-treated control (relative inhibition profile)” value [3] was “selective and dose-dependent decrease of four EGFR-mutant cell lines”.

In the case of `COc1cc(N2CCC(N3CCN(C)CC3)CC2)ccc1Nc1ncc(Cl)c(Nc2ccccc2S(=O)(=O)C(C)C)n1` [NVP-TAE-684], the “viability relative to DMSO-treated control (relative inhibition profile)” value [3] is reported as “selective killing was observed of H3122, but not H2228”.

`Cn1cnc2c(F)c(Nc3ccc(Br)cc3Cl)c(C(=O)NOCCO)cc21` [AZD6244] was tested, and the “reduction in cell viability in BRAF V600E mutant lines compared to BRAF wild-type lines” value (“reduction in cell viability” for short) [4] was “only a trend towards this reduction”, the “reduction in cell viability” value [5] was “significant reduction” and the “reduction in cell viability” value [7] was “only a trend towards this reduction”.

With `Cn1c(Nc2ccc(C(F)(F)F)cc2)nc2cc(Oc3ccnc(-c4ncc(C(F)(F)F)[nH]4)c3)ccc21` [RAF-265] the “reduction in cell viability” value [7] was “a similar reduction was seen only with PRISM”.

With `CNC(=O)c1cc(Oc2ccc(NC(=O)Nc3ccc(Cl)c(C(F)(F)F)c3)cc2)ccn1` [sorafenib] the “reduction in cell viability” value [4] was “did not demonstrate significant reductions”, the “reduction in cell viability” value [5] was “did not demonstrate significant reductions” and the “reduction in cell viability” value [7] was “did not demonstrate significant reductions”.

`O=C(O)c1ccc(Nc2ncc3c(n2)-c2ccc(Cl)cc2C(c2c(F)cccc2F)=NC3)cc1` [MLN8054] was tested, and the “DNA content per cell” value (HCT-116 cells [1]) was “increased DNA content” and the “phosphorylation” value (HCT-116 cells [2]) was “decrease phosphorylation of serine 10 on histone H3”.

`CCn1cc(-c2ccnc3[nH]c(-c4cccc(CN(C)C)c4)cc23)c(-c2ccc(NC(=O)N(C)C)cc2)n1` [GSK1070916] was tested, and the “DNA content per cell” value (HCT-116 cells [1]) was “increased DNA content” and the “phosphorylation” value (HCT-116 cells [2]) was “decrease phosphorylation of serine 10 on histone H3”.

In the case of `CCCS(=O)(=O)Nc1ccc(F)c(C(=O)c2c[nH]c3ncc(Cl)cc23)c1F` [PLX4720], the “reduction in cell viability” value [4] is reported as “significant (two-tailed t-test, p<0.05) reductions in cell viability”, the “reduction in cell viability” value [5] is reported as “significant (two-tailed t-test, p<0.05) reductions in cell viability” and the “reduction in cell viability” value [7] is reported as “significant (two-tailed t-test, p<0.05) reductions in cell viability”.
